From patent publication US7598341B2, “Molecules that selectively home to vasculature of premalignant or malignant lesions of the pancreas and other organs” (Burnham Institue for Medical Research, priority 2003, dated 2009)
Entries after “also recorded” stand apart in the source; their conditions may differ.

Experiments:
[1] = tested on: RIP1-Tag2 angiogenic islets and tumors; test: Localization of fluorescein-conjugated peptides after intravenous injection; assay type: in vivo, mouse; details: for homing selectivity of purified peptides: i.v. into 8-week or 12-week old RIP-Tag2 mice; for homing to normal islets, kidney, brain, liver, lung or spleen: purified peptides i.v.; for localization in RIP1-Tag2 angiogenic islets / localization in RIP1-Tag2 tumors / localization in normal islets: fluorescein-conjugated peptide i.v., 7 minutes circulation, FIG. 2
Description: Fluorescein-conjugated peptides corresponding to phage insert sequences were synthesized using an automated peptide synthesizer with standard solid-phase fluorenylmethoxycarbonyl (Fmoc) chemistry. […] of each individual fluorescein-conjugated peptide was injected intravenously into the tail vein of RIP1-Tag2 mice at 8 or 12 weeks of age, and into normal BL/6 mice. The peptide was allowed to circulate for 7 minutes, followed by heart perfusion first with PBS and then with Zn-buffered formalin. The RIP1-Tag2 pancreas and control organs (brain, kidney, liver, lung and spleen) were removed, fixed for one hour in formalin, washed with 1×PBS, placed in 30% sucrose for several hours, washed with 1×PBS, and embedded in OCT (Tissue-Tek). Each peptide was injected into at least three individual RIP1-Tag2 or normal mice at each of the different stages. To examine the localization of injected fluorescein-conjugated peptides, frozen sections ([…] thick) were cut on a cryostat, mounted in Vectashield Mounting Medium with DAPI (Vector Laboratories) and visualized under an inverted fluorescent microscope or a confocal microscope (Zeiss LSM 510 META).

[2] = tested on: RIP1-Tag2 angiogenic islets and tumors; test: In vivo homing of phage (pools and individual phage) in RIP1-Tag2 mice; design: species or system mouse; details: phage-displayed peptide, i.v., FIG. 1D, with ex vivo binding patterns
Description: For in vivo selection of phage that home specifically to premalignant lesions and malignant tumors, the ex vivo pre-selected phage pool was injected intravenously into 12 week old RIP1-Tag2 mice through the tail vein, allowed to circulate for 7 minutes and heart-perfused with PBS to remove unbound intravascular phage. As the vasculature is preferentially available for the phage to bind in this selection, there is an enrichment of phage that bind to the endothelium of the target tissue.
The RIP1-Tag2 lesions and control tissues (brain, kidney, spleen, lung, ‘white’ pancreas lacking hemorrhagic lesions and liver were excised to allow for comparison of homing efficiencies. Cell suspensions were prepared by mechanical disruption of the tissues. Tissues were washed to remove unbound phage, and the bound phage rescued and amplified by adding E. coli. The phage pool was re-injected into mice at a similar disease stage, and the cycle repeated. In each experiment, non-recombinant control phage were used as a control for relative selectivity.
Sets of 96 phage clones were randomly collected from each homing phage population that selectively homed to premalignant angiogenic islets or pancreatic tumor cells. Peptide-encoding DNA inserts from collected phage clones were amplified by PCR, and the PCR products sequenced. Phage representing the most frequently appearing peptide motifs were individually tested for their ability to selectively home to the lesions on which they were selected, relative to other stages in the tumorigenesis pathway and to control organs. Six of the phage selected for further analysis were from the tumor screen (referred to as KAA, RGR, RSR, VGVA, VGVG and KAR), and one (EYQ) was picked from the angiogenic screen.

[3] = tested on: endothelial cell and pericyte markers (MECA-32, NG2); test: Co-localization of fluorescein-conjugated peptides with vascular markers; assay type: in vivo, mouse; details: fluorescein-conjugated peptide i.v.; for co-localization with endothelial cell and pericyte markers in RIP1-Tag2 islet lesions: MECA-32, NG2, FIG. 3
Description: To confirm that intravenous administration of phage libraries selects for phage carrying peptides that bind to endothelial molecules specific for the target vasculature, tissues were collected following i.v. infusion with the various fluorescein-conjugated peptides, sectioned, and evaluated with endothelial cell markers.
(§1) For immunohistochemistry, frozen slides were pre-incubated with blocking buffer (1×PNB from NEN Biosciences) for one hour, washed several times in 1×PBS and incubated with the primary antibody of interest overnight at 4° C. The cell-specific antibodies used were rat monoclonal anti-mouse CD31 (1:200; BD Pharmingen), rat monoclonal anti-mouse MECA-32 (1:200; BD Pharmingen), rabbit polyclonal anti-mouse NG2 (1:200; Chemicon), and rat monoclonal anti-mouse PDGFRb (CD140b) (1:200; eBioscience). The corresponding secondary antibodies; Cy-3 donkey anti-rabbit IgG and Rhodamine Red donkey anti-rat IgG (Jackson ImmunoResearch), were used at a 1:200 dilution and incubated for one hour at room temperature. The following species-matched immunoglobulins were used as negative controls; rabbit IgG (Vector Laboratories) and rat IgG (Jackson ImmunoResearch) at a 1:200 dilution. The slides were washed several times in 1×PBS and mounted in Vectashield Mounting Medium with DAPI (Vector Laboratories). Hematoxylin and eosin (H&E) staining was performed for histological grading of adjacent sections by standard methods, and lesions were graded as previously described (Lopez and Hanahan, 2002).
The primary analysis involved immunostaining with a mouse pan-endothelial cell antigen (MECA-32) antibody that recognizes a dimer of 50-55 kDa protein subunits present on all endothelial cells (Hallman et al., 1995; Leppink et al., 1989) (FIG. 3 B,C,H,I,N,O). Additional analyses involved immunostaining to reveal CD31/PE-CAM, or systemic infusion of a fluorescent-labeled lectin that binds to the endothelial lumen. In addition, tissue sections from peptide-infused mice were stained with an antibody recognizing NG2, a marker of the neovascular pericytes (Schlingemann et al., 1990, 1991) (FIG. 3 E,F,K,L,Q,R).

[4] = tested on: MDA MB-435 subcutaneous tumor; test: Homing to MDA-MB-435 subcutaneous tumor; assay type: in vivo, mouse; details: fluorescein-conjugated peptide i.v., FIG. 4B
Description: (§2) To determine whether phage identified to home to pancreatic tumors also home to other types of tumors, these phage were tested using animals having various types of tumors, including bTC3 subcutaneous tumor and MDA MB-435 subcutaneous tumor. bTC3 transplant tumors arise following subcutaneous inoculation of nude mice with cultured islet tumor-derived (bTC3) cells (Efrat et al., 1988). Since the vasculature of a subcutaneously grown bTC3 tumor derives from skin, we also tested another subcutaneous transplant tumor, arising from inoculation of the MDA-MB-435 human breast carcinoma cell line. Finally, K14-HPV16 mice, another well-studied transgenic mouse model of cancer that develop tumors of the squamous epithelial cells of the skin (Arbeit et al., 1994; Coussens et al., 1996), was used to compare RIP1-Tag2 islet tumors to a tumor with similar multistage pathogenesis arising in a different tissue.
(§3) Tumors were dissected from the ear or chest of K14-HPV16 mice. For the bTC3 allograft models, 10^6 bTC3 tumor cells (Efrat et al., 1988) were inoculated under the skin of the rear flank of nu/nu mice in a BALB/c background and allowed to grow until approximately 5 mm in size, and then used for experimental analysis. MDA-MB-435 xenograft models were generated by inoculating 10^6 tumor cells subcutaneously in the chest of nu/nu Balb/c mice. Tumors were used for the homing/binding experiments at 8-12 weeks after injection of the tumor cells.

[5] = tested on: bTC3-derived subcutaneous transplant tumor in a nude mouse; test: Homing to bTC3 subcutaneous tumor; assay type: in vivo; details: FIG. 4A
Description: as §2, §3

[6] = tested on: RIP1-Tag2 pancreatic tumor, bTC3-derived subcutaneous transplant tumor, K14-HPV16 squamous cell carcinoma; test: Relative homing efficiency of individual phage in various tumor models (FIG. 4A); assay type: in vivo, mouse; details: phage from the RIP1-Tag2 tumor screen
Description: as §2, §3
FIG. 4A is bar graph showing homing efficiency of individual phage to a pancreatic tumor in a RIP1-Tag2 mouse, a bTC3-derived subcutaneous transplant tumor in a nude mouse, and a squamous cell carcinoma in a K14-HPV16 mouse.

[7] = tested on: squamous cell carcinoma in a K14-HPV16 mouse; test: Homing to HPV tumor; assay type: in vivo; details: FIG. 4A
Description: as §2, §3

[8] = target: T1, PDGFRβ (Mus musculus, UniProt P05622); test: Co-localization of i.v. injected fluorescein-conjugated peptide with PDGFRβ immunostaining in RIP1-Tag2 tumors; assay type: in vivo; details: tissue sections from RIP1-Tag2 tumors, FIG. 5B
T1 construct: from tissue; host or cells: pancreatic islet tumors of RIP1-Tag2 transgenic mice
Description: as §1
FIG. 5A is a bar graph showing binding of RGR or RSR phage to 293 cells transfected with either PDGFRβ, VEGFR2, or non-transfected cells.

[9] = target: T2, PDGFRβ (Homo sapiens, UniProt P09619); test: Phage binding to transfected 293T cells (plaque assay); details: FIG. 5A
T2 construct: expressed in transfected cells; host or cells: 293T cells
Description: To confirm that the RGR peptide binds specifically to PDGFRβ, phage displaying this peptide were incubated with 293T cells overexpressing PDGFRβ. Recombinant 293T cells were prepared by transfecting with plasmids encoding PDGFRβ or VEGFR-2 (Borges et al., 2000) using Fugene transfection reagent (Roche Diagnostics). Briefly, 10 μg of plasmid was mixed with 700 μl of DMEM without serum and 30 μl of Fugene reagent, and incubated for 15 minutes at room temperature before adding the mixture to the cells. Forty-eight hours post-transfection the cells were detached from the culture plates using EDTA and washed once with PBS. Recombinant phage displaying the RSR, RGR peptides and control nonrecombinant phage (about 1×10^9 pfu) were incubated with the transfected cells for 2 hours at 4° C., followed by 5 washes with 1% BSA in PBS to remove the unbound phage. The bound phage were rescued by adding bacteria, and the binding efficiencies were determined by plaque assay.

T1 sequence (P05622 32-1098): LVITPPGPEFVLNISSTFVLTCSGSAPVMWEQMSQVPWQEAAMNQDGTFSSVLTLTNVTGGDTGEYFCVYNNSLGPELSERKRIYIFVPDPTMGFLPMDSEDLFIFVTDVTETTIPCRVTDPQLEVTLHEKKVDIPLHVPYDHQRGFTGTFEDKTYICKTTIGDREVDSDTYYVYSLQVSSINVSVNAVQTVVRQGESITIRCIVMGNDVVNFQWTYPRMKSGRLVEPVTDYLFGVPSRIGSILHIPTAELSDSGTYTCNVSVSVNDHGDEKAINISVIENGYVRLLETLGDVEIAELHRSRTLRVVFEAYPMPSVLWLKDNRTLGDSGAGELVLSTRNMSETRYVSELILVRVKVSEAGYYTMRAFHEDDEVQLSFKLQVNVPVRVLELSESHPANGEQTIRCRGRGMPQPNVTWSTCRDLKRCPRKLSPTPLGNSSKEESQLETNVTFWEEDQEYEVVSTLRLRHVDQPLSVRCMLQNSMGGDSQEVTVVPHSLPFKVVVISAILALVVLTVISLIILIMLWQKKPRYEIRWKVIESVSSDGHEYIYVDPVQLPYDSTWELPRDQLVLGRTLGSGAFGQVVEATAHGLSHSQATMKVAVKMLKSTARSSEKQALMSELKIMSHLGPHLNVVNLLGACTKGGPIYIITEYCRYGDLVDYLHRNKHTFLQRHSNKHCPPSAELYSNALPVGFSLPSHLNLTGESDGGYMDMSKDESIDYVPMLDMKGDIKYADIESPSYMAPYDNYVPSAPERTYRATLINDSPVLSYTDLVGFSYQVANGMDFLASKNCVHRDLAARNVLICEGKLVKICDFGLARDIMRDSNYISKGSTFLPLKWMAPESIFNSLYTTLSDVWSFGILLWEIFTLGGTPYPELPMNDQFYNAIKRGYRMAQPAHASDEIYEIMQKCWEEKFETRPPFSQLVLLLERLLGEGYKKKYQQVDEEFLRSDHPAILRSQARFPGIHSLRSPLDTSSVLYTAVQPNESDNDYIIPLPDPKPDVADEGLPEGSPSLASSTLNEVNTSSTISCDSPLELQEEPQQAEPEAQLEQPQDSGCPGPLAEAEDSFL
T2 sequence (P09619 33-1106, species assumed): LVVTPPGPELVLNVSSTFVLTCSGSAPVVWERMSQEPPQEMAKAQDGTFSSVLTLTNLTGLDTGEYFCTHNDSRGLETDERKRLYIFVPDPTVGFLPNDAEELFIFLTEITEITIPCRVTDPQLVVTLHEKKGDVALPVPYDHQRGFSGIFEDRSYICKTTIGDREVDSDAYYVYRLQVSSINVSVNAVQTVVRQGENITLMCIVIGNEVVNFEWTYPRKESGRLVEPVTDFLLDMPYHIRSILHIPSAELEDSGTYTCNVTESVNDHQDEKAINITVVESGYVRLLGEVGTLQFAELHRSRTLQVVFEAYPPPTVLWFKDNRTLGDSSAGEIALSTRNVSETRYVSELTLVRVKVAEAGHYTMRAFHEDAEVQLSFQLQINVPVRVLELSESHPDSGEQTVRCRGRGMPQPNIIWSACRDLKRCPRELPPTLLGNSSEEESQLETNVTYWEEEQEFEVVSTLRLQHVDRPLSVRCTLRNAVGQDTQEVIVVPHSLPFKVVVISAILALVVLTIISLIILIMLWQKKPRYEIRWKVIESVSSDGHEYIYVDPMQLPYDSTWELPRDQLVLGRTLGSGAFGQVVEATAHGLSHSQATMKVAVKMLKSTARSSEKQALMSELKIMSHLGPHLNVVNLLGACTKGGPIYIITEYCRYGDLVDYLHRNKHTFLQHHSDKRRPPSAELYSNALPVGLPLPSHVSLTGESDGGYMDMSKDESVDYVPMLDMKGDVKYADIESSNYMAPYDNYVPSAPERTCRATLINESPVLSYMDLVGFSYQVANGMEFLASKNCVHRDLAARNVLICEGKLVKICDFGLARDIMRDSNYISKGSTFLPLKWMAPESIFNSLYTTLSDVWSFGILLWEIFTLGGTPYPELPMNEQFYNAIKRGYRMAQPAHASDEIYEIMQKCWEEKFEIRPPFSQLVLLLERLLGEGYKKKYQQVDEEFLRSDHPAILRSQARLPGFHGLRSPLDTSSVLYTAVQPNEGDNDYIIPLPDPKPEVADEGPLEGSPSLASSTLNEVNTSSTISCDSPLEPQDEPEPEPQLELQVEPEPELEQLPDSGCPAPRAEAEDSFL

Row | Substance | homing selectivity of purified peptides [1] | homing to normal islets, kidney, brain, liver, lung or spleen [1] | homing class of individual phage (angiogenic islets or tumors in vivo) [2] | co-localization with MECA-32 or NG2 in adjacent exocrine pancreas or normal pancreatic islets [3] | co-localization with endothelial cell and pericyte markers in RIP1-Tag2 islet lesions [3] | homing to MDA tumor [4] | homing to TC3 tumor [5] | localization in RIP1-Tag2 angiogenic islets [1] | localization in RIP1-Tag2 tumors [1] | localization in normal islets [1] | relative homing efficiencies in the various tumor models (category) [6] | homing to HPV tumor [7] | co-localization with PDGFRβ [8] | co-localization with PDGFRβ ([8]; listed as CRGRRST) | binding to PDGFRβ-transfected cells [9]
1 | CEYQLDVE [linear homing peptide] | highly selective for premalignant angiogenic islets | did not appreciably home | angiogenic islet-selective |  |  |  |  |  |  |  |  |  |  |  | 
2 | CKAAKNK | malignant solid tumors | did not appreciably home | tumor-selective | no co-localization | some co-localization both with endothelial cell and pericyte markers; also recorded: co-localized both with the endothelial cell and pericyte markers | homed | did not home appreciably | little or no localization | abundant localization | little or no localization | selectively home to RIP1-Tag2 tumors | did not home appreciably |  |  | 
3 | CKGAKAR | malignant solid tumors | did not appreciably home | tumor-selective |  |  |  | did not home appreciably |  |  |  | more general homing to other tumors in addition to RIP1-Tag2 | homed |  |  | 
4 | CRGRRST [linear homing peptide] | both angiogenic islets and tumors | did not appreciably home | home to both types of lesion | no co-localization | some co-localization both with endothelial cell and pericyte markers; also recorded: co-localized both with the endothelial cell and pericyte markers | did not home appreciably | did not home appreciably | localizes | localizes | little or no localization | selectively home to RIP1-Tag2 tumors | did not home appreciably | almost complete co-localization | co-localize | bind
5 | CRSRKG [linear homing peptide] | highly selective for premalignant angiogenic islets | did not appreciably home | angiogenic islet-selective | no co-localization | some co-localization both with endothelial cell and pericyte markers; also recorded: co-localized both with the endothelial cell and pericyte markers | did not home appreciably | homed | abundant accumulation | little or no localization | little or no localization |  | did not home appreciably |  |  | 
6 | FRVGVADV [linear homing peptide; homes to both types of lesion] | both angiogenic islets and tumors | did not appreciably home | home to both types of lesion |  |  |  | did not home appreciably |  |  |  | selectively home to RIP1-Tag2 tumors | did not home appreciably |  |  | 
7 | VGVGEWSV |  |  | tumor-selective |  |  |  | homed |  |  |  | more general homing to other tumors in addition to RIP1-Tag2 | did not home appreciably |  |  | 
